The supplement of paper PMC10307832

Tests used:
Assay in all cases: relative viability (nuclei count vs DMSO), 5 days (fraction); higher = more cells survive
[1] = system: NCI-H1792
In short: (§1)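 The day after seeding in 1536-well plates, lung cancer cell lines were treated by pin tool with a single drug, or with a fixed anchor-drug dose together with five library-drug doses (not always all listed) in √10 steps. After 5 days, a combined fix-and-stain solution (final 0.05% Triton X-100, 1% formaldehyde, 1 ug/ml Hoechst) was added. Nuclei counted on 4× images gave relative viability as treated counts over vehicle counts, reported as the median of duplicate plates.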

[2] = system: NCI-H1734
In short: as §1

[3] = system: COR-L23
In short: as §1

[4] = system: COR-L 105
In short: as §1

[5] = system: NCI-H358
In short: as §1

[6] = system: NCI-H1793
In short: as §1

[7] = system: SK-MES-1
In short: as §1

[8] = system: NCI-H1993
In short: as §1

[9] = system: NCI-H838
In short: as §1

[10] = system: HOP-62
In short: as §1

[11] = system: NCI-H2347
In short: as §1

[12] = system: NCI-H1755
In short: as §1

[13] = system: NCI-H1395
In short: as §1

[14] = system: NCI-H2170
In short: as §1

[15] = system: UMC-11
In short: as §1

[16] = system: NCI-H647
In short: as §1

[17] = system: NCI-H2009
In short: as §1

[18] = system: HCC-15
In short: as §1

[19] = system: NCI-H522
In short: as §1

[20] = system: HARA
In short: as §1

[21] = system: NCI-H1355
In short: as §1

## COc1nc(C)cnc1NS(=O)(=O)c1cccnc1-c1ccc(-c2nnco2)cc1 [Zibotentan] + Nc1ncn([C@H]2C[C@H](O)[C@@H](CO)O2)c(=O)n1 [Decitabine] (partner 2 µM)
[1]; first compound 0.08 µM
  relative viability: 0.491
[1]; first compound 0.253 µM
  relative viability: 0.549
[1]; first compound 0.8 µM
  relative viability: 0.547
[1]; first compound 2.53 µM
  relative viability: 0.575
[2]; first compound 0.08 µM
  relative viability: 0.486
[2]; first compound 0.253 µM
  relative viability: 0.496
[2]; first compound 0.8 µM
  relative viability: 0.513
[2]; first compound 2.53 µM
  relative viability: 0.541
[3]; first compound 0.08 µM
  relative viability: 0.506
[3]; first compound 0.253 µM
  relative viability: 0.402
[3]; first compound 0.8 µM
  relative viability: 0.573
[3]; first compound 2.53 µM
  relative viability: 0.455
[4]; first compound 0.08 µM
  relative viability: 0.634
[4]; first compound 0.253 µM
  relative viability: 0.609
[4]; first compound 0.8 µM
  relative viability: 0.711
[4]; first compound 2.53 µM
  relative viability: 0.615
[5]; first compound 0.08 µM
  relative viability: 0.196
[5]; first compound 0.253 µM
  relative viability: 0.139
[5]; first compound 2.53 µM
  relative viability: 0.222
[6]; first compound 0.08 µM
  relative viability: 0.503
[6]; first compound 0.253 µM
  relative viability: 0.471
[6]; first compound 0.8 µM
  relative viability: 0.528
[6]; first compound 2.53 µM
  relative viability: 0.635
[7]; first compound 0.08 µM
  relative viability: 0.389
[7]; first compound 0.253 µM
  relative viability: 0.285
[7]; first compound 0.8 µM
  relative viability: 0.447
[7]; first compound 2.53 µM
  relative viability: 0.365
[8]; first compound 0.08 µM
  relative viability: 0.639
[8]; first compound 0.253 µM
  relative viability: 0.576
[8]; first compound 0.8 µM
  relative viability: 0.521
[8]; first compound 2.53 µM
  relative viability: 0.61
[9]; first compound 0.08 µM
  relative viability: 0.455
[9]; first compound 0.253 µM
  relative viability: 0.414
[9]; first compound 0.8 µM
  relative viability: 0.545
[9]; first compound 2.53 µM
  relative viability: 0.461
[10]; first compound 0.08 µM
  relative viability: 0.169
[10]; first compound 0.253 µM
  relative viability: 0.19
[10]; first compound 0.8 µM
  relative viability: 0.209
[10]; first compound 2.53 µM
  relative viability: 0.207
[11]; first compound 0.08 µM
  relative viability: 0.583
[11]; first compound 0.253 µM
  relative viability: 0.586
[11]; first compound 0.8 µM
  relative viability: 0.744
[11]; first compound 2.53 µM
  relative viability: 0.604
[12]; first compound 0.08 µM
  relative viability: 0.737
[12]; first compound 0.253 µM
  relative viability: 0.616
[12]; first compound 0.8 µM
  relative viability: 0.8
[12]; first compound 2.53 µM
  relative viability: 0.732
[13]; first compound 0.08 µM
  relative viability: 0.736
[13]; first compound 0.253 µM
  relative viability: 0.68
[13]; first compound 0.8 µM
  relative viability: 0.708
[13]; first compound 2.53 µM
  relative viability: 0.674
[14]; first compound 0.08 µM
  relative viability: 0.449
[14]; first compound 0.253 µM
  relative viability: 0.463
[14]; first compound 0.8 µM
  relative viability: 0.341
[14]; first compound 2.53 µM
  relative viability: 0.463
[15]; first compound 0.08 µM
  relative viability: 0.576
[15]; first compound 0.253 µM
  relative viability: 0.532
[15]; first compound 0.8 µM
  relative viability: 0.634
[15]; first compound 2.53 µM
  relative viability: 0.697
[16]; first compound 0.08 µM
  relative viability: 0.438
[16]; first compound 0.253 µM
  relative viability: 0.341
[16]; first compound 0.8 µM
  relative viability: 0.448
[16]; first compound 2.53 µM
  relative viability: 0.509
[17]; first compound 0.08 µM
  relative viability: 0.404
[17]; first compound 0.253 µM
  relative viability: 0.398
[17]; first compound 0.8 µM
  relative viability: 0.417
[17]; first compound 2.53 µM
  relative viability: 0.377
[18]; first compound 0.08 µM
  relative viability: 0.607
[18]; first compound 0.253 µM
  relative viability: 0.538
[18]; first compound 0.8 µM
  relative viability: 0.727
[18]; first compound 2.53 µM
  relative viability: 0.696
[19]; first compound 0.08 µM
  relative viability: 0.677
[19]; first compound 0.253 µM
  relative viability: 0.5
[19]; first compound 0.8 µM
  relative viability: 0.718
[19]; first compound 2.53 µM
  relative viability: 0.756
[20]; first compound 0.08 µM
  relative viability: 0.551
[20]; first compound 0.8 µM
  relative viability: 0.515
[20]; first compound 2.53 µM
  relative viability: 0.497
[21]; first compound 0.08 µM
  relative viability: 0.346
[21]; first compound 0.253 µM
  relative viability: 0.337
[21]; first compound 0.8 µM
  relative viability: 0.368
[21]; first compound 2.53 µM
  relative viability: 0.35
